Results: PubChem BioAssay (NCI)
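Cells were grown in 96-well plates and exposed to each compound for 48 hours at five concentrations; endpoints were interpolated linearly between bracketing concentrations, or set to the highest concentration if not reached. GI50 marks 50% less growth. TGI marks complete inhibition of growth.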

Assays:
Experiment in all cases: NCI tumour cell line growth inhibition, 48 h
[1] = tested on: 786-0 renal
[2] = tested on: A498 renal
[3] = tested on: A549 NSCLC
[4] = tested on: ACHN renal
[5] = tested on: BT-549 breast
[6] = tested on: CAKI-1 renal
[7] = tested on: CCRF-CEM leukemia
[8] = tested on: COLO 205 colon
[9] = tested on: DU-145 prostate
[10] = tested on: EKVX NSCLC
[11] = tested on: HCC-2998 colon
[12] = tested on: HCT-116 colon
[13] = tested on: HCT-15 colon
[14] = tested on: HL-60(TB) leukemia
[15] = tested on: HOP-62 NSCLC
[16] = tested on: HOP-92 NSCLC
[17] = tested on: HS 578T breast
[18] = tested on: HT29 colon
[19] = tested on: IGROV1 ovarian
[20] = tested on: K-562 leukemia
[21] = tested on: KM12 colon
[22] = tested on: LOX IMVI melanoma
[23] = tested on: M14 melanoma
[24] = tested on: MALME-3M melanoma
[25] = tested on: MCF7 breast
[26] = tested on: MDA-MB-231 breast
[27] = tested on: MDA-MB-435
[28] = tested on: MDA-MB-468 breast
[29] = tested on: MOLT-4 leukemia
[30] = tested on: NCI-H226 lung
[31] = tested on: NCI-H23 lung
[32] = tested on: NCI-H460 lung
[33] = tested on: NCI-H522 lung
[34] = tested on: NCI/ADR-RES ovarian
[35] = tested on: OVCAR-3 ovarian
[36] = tested on: OVCAR-4 ovarian
[37] = tested on: OVCAR-5 ovarian
[38] = tested on: OVCAR-8 ovarian
[39] = tested on: PC-3 prostate
[40] = tested on: RPMI-8226 leukemia
[41] = tested on: RXF 393 renal
[42] = tested on: SF-268 CNS
[43] = tested on: SF-295 CNS
[44] = tested on: SF-539 CNS
[45] = tested on: SK-MEL-2 melanoma
[46] = tested on: SK-MEL-28 melanoma
[47] = tested on: SK-MEL-5 melanoma
[48] = tested on: SK-OV-3 ovarian
[49] = tested on: SN12C renal
[50] = tested on: SNB-19 CNS
[51] = tested on: SNB-75 CNS
[52] = tested on: SR leukemia
[53] = tested on: SW-620 colon
[54] = tested on: T-47D breast
[55] = tested on: TK-10 renal
[56] = tested on: U251 CNS
[57] = tested on: UACC-257 melanoma
[58] = tested on: UACC-62 melanoma
[59] = tested on: UO-31 renal

With `O=C1CCC(N2Cc3c(C#CCCCNC(=O)c4ccc(NC(=O)[C@@H]5NC6(CCCCC6)[C@@]6(C(=O)Nc7cc(Cl)ccc76)[C@H]5c5cccc(Cl)c5F)cc4)cccc3C2=O)C(=O)N1` (stereo partly specified) the GI50 [1] was 35.2 µM, the TGI [1] was > 100 µM and the GI50 [2] was 25.7 µM. The TGI [2] was > 100 µM, the GI50 [3] was 1.04 µM and the TGI [3] was > 100 µM. The GI50 [4] was 3.86 µM, the TGI [4] was > 100 µM and the GI50 [5] was 13.1 µM. For the same compound, the TGI [5] was > 100 µM, the GI50 [6] was 1.2 µM and the TGI [6] was > 100 µM. The GI50 [7] was 11.6 µM, the TGI [7] was > 100 µM and the GI50 [8] was 72 µM. For the same compound, the TGI [8] was > 100 µM, the GI50 [9] was > 100 µM and the TGI [9] was > 100 µM. For the same compound, the GI50 [10] was 8.32 µM, the TGI [10] was > 100 µM and the GI50 [11] was 9.57 µM. For the same compound, the TGI [11] was > 100 µM, the GI50 [12] was 2.45 µM and the TGI [12] was > 100 µM. The GI50 [13] was 7.72 µM, the TGI [13] was > 100 µM and the GI50 [14] was 6.77 µM. The TGI [14] was > 100 µM, the GI50 [15] was > 100 µM and the TGI [15] was > 100 µM. The GI50 [16] was 5.27 µM, the TGI [16] was > 100 µM and the GI50 [17] was 4.3 µM. For the same compound, the TGI [17] was > 100 µM, the GI50 [18] was 25.2 µM and the TGI [18] was > 100 µM. The GI50 [19] was 1.76 µM, the TGI [19] was > 44 µM and the GI50 [20] was 65 µM. For the same compound, the TGI [20] was > 100 µM, the GI50 [21] was 9.18 µM and the TGI [21] was > 100 µM. For the same compound, the GI50 [22] was 0.953 µM, the TGI [22] was > 100 µM and the GI50 [23] was 75 µM. For the same compound, the TGI [23] was > 100 µM, the GI50 [24] was 0.159 µM and the TGI [24] was 20 µM. For the same compound, the TGI [25] was > 49.8 µM, the GI50 [26] was 15.4 µM and the TGI [26] was > 100 µM. For the same compound, the GI50 [27] was 31.8 µM, the TGI [27] was > 100 µM and the GI50 [28] was 4.38 µM. For the same compound, the TGI [28] was > 35.7 µM, the TGI [29] was 1.43 µM and the GI50 [30] was 0.2 µM. The TGI [30] was > 74.5 µM, the GI50 [31] was > 88 µM and the TGI [31] was > 100 µM. For the same compound, the GI50 [32] was 2.09 µM, the TGI [32] was > 100 µM and the GI50 [33] was > 89.9 µM. For the same compound, the TGI [33] was > 100 µM, the GI50 [34] was > 100 µM and the TGI [34] was > 100 µM. The GI50 [35] was 15.8 µM, the TGI [35] was > 100 µM and the GI50 [36] was 7.28 µM. For the same compound, the TGI [36] was 97.5 µM, the GI50 [37] was > 53.2 µM and the TGI [37] was > 100 µM. For the same compound, the GI50 [38] was > 100 µM, the TGI [38] was > 100 µM and the GI50 [39] was 7.52 µM. For the same compound, the TGI [39] was > 100 µM, the GI50 [40] was 4.16 µM and the TGI [40] was > 100 µM. The GI50 [41] was 5.81 µM, the TGI [41] was > 79 µM and the GI50 [42] was 26 µM. For the same compound, the TGI [42] was > 100 µM, the GI50 [43] was 10.8 µM and the TGI [43] was > 100 µM. For the same compound, the GI50 [44] was 12.9 µM, the TGI [44] was > 100 µM and the GI50 [45] was > 100 µM. The TGI [45] was > 100 µM, the GI50 [46] was 96.8 µM and the TGI [46] was > 100 µM. The GI50 [47] was 2.33 µM, the TGI [47] was > 40.2 µM and the GI50 [48] was > 95.6 µM. The TGI [48] was > 100 µM, the GI50 [49] was > 78.2 µM and the TGI [49] was > 100 µM. The GI50 [50] was > 50.1 µM, the TGI [50] was > 100 µM and the GI50 [51] was 2.5 µM. The TGI [51] was > 72.1 µM, the GI50 [52] was 0.25 µM and the TGI [52] was 3.11 µM. For the same compound, the GI50 [53] was > 100 µM, the TGI [53] was > 100 µM and the GI50 [54] was 6.68 µM. The TGI [54] was > 100 µM, the GI50 [55] was > 75.9 µM and the TGI [55] was > 100 µM. For the same compound, the GI50 [56] was 9.5 µM, the TGI [56] was > 100 µM and the GI50 [57] was 9.03 µM. The TGI [57] was > 100 µM, the GI50 [58] was 0.445 µM and the TGI [58] was > 100 µM. For the same compound, the GI50 [59] was 3.04 µM and the TGI [59] was > 100 µM.
